This data set can be described thus: Liquid crystal dispersion system formation with changed component (i). Format: physicochemical. The following applies: component (i): phytosterol 2, cetanol 5, Table 6 component 3, δ-tocopherol 0.1 parts by weight. An excerpt: The racemic ceramide was obtained by converting a racemic sphinganine obtained by the method by D. Shapiro., et al., (J. Am. Chem. Soc., 80, 2170(1958)) into its stearoyl form.

Here are results for 1 molecule from patent US8865191B2, “Lipid composition and skin care formulation containing the same” (Takasago International Corporation, priority 2003, dated 2014).

On to `CCCCCCCCCCCCCCCCCC(=O)NC(CO)C(O)CCCCCCCCCCCCCCC` (racemic) [racemic ceramide], for which the System morphology result was “difficult to form a stable liquid crystal dispersion system”.
